{"source": "patent US10927123B2", "about": "“Modulators of the beta-3 adrenergic receptor useful for the treatment or prevention of disorders related thereto” (Arena Pharmaceuticals, Inc., priority 2016, dated 2021)", "key": {"[1]": {"molecular_target": "Beta-3 Adrenergic Receptor (Homo sapiens (Human), UniProt P13945)", "sequence (P13945 whole entry, species assumed)": "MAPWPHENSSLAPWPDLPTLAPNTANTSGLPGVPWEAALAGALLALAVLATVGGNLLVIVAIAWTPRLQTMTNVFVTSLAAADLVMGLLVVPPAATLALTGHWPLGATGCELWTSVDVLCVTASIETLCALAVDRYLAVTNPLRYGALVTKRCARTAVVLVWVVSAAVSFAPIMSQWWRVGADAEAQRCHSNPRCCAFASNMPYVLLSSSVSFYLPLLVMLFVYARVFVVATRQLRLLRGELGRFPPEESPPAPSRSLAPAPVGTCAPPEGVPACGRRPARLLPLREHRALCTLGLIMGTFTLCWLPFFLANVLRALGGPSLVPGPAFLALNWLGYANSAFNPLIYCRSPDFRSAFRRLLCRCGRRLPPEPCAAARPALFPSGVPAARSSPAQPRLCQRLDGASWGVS", "test": "HTRF cAMP antagonist assay (IC50 determination)", "type": "cell-based", "settings": "CHO-K1 cells stably expressing recombinant receptor; antagonism of isoproterenol at EC90; cAMP readout", "procedure,_shortened": "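CHO-K1 cells stably expressing the recombinant receptor were preincubated with compound (10-point, 5-fold dilutions; top final typically 10 or 100 μM) in PBS with 1 mM IBMX, then stimulated with isoproterenol at its EC90 for 1 h at room temperature. cAMP was read by HTRF against an on-plate standard curve.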"}, "[2]": {"test_system": "chronic heart failure (CHF) rats", "test": "Left ventricular contractility in chronic heart failure (CHF) rats", "type": "in vivo, rat", "procedure": "Beta-3 adrenergic receptor antagonists were evaluated for effects on cardiac contractility in normal and chronic heart failure (CHF) rats. Because beta-3 adrenergic receptor expression is weak in the normal rat heart, compounds were evaluated for the ability to attenuate the negative contractile effects of the beta-3 adrenergic receptor agonist BRL 37344 (Tocris Bioscience, Bristol, UK) in the normal rats. Because beta-3 adrenergic receptor expression is higher in the rat heart with CHF, a compound was evaluated for the ability to improve contractility compared to baseline in this CHF rat model. […]\nHeart failure was evaluated weekly following surgery by testing impaired left ventricular function by echocardiography. Left ventricle end-diastolic volume (LVEDV) and left ventricle end-systolic volume (LVESV) were measured for at least three consecutive cardiac cycles in long-axis view images. Ejection Fraction (EF %) was calculated using the following formula: EF %=(LVEDV−LVESV)/LVEDV. […]\nA direct determination of left ventricular function was used for all rats to evaluate the effects of compounds on left ventricular contractility. […] Left ventricular pressure (LVP) was monitored by LabChart with POWERLAB® Data Acquisition System (ADlnstruments, Sydney, Australia). […]\nDevelopment of CHF was monitored by echocardiography in rats after the surgically-induced myocardial infarction. […]"}, "normal rats": {"test_system": "normal rats", "test": "Attenuation of negative contractile effect of BRL 37344 on left ventricular pressure in normal rats", "type": "in vivo, rat", "settings": "test compound infusion 3, 10, 30 or 60 mg/kg, BRL 37344 bolus 3 μg/kg", "procedure": "Beta-3 adrenergic receptor antagonists were evaluated for effects on cardiac contractility in normal and chronic heart failure (CHF) rats. Because beta-3 adrenergic receptor expression is weak in the normal rat heart, compounds were evaluated for the ability to attenuate the negative contractile effects of the beta-3 adrenergic receptor agonist BRL 37344 (Tocris Bioscience, Bristol, UK) in the normal rats. Because beta-3 adrenergic receptor expression is higher in the rat heart with CHF, a compound was evaluated for the ability to improve contractility compared to baseline in this CHF rat model.\nA direct determination of left ventricular function was used for all rats to evaluate the effects of compounds on left ventricular contractility. Right carotid artery catheterization was used for contractility measurements. The rats were anesthetized with an intraperitoneal injection of INACTIN® (Cat #T-133, Sigma, St. Louis, Mo.) (100 mg/kg body weight), and a Millar MIKRO-TIP® pressure catheter (Cat #SPR-320NR, Millar, Inc., Houston, Tex.) was passed through the carotid artery into left ventricle. Left ventricular pressure (LVP) was monitored by LabChart with POWERLAB® Data Acquisition System (ADlnstruments, Sydney, Australia).\nJugular vein catheterization was used for compound administration. A silastic catheter (Cat #427411, BD, Franklin Lakes, N.J.) was introduced into the jugular vein, and a right venous catheter was connected to an automated drug delivery system (11 Plus Syringe Pump, Harvard Apparatus, Holliston, Mass.).\nIn the normal rats, 3 mg/kg, 10 mg/kg, 30 mg/kg, or 60 mg/kg of test compounds were administered starting 30-45 minutes after catheter implantation. A bolus injection of BRL 37344 (3 μg/kg) was administered via the left jugular vein 15-20 minutes after test compound infusion was started, and five minutes before compound infusion was stopped. A blood sample (800 μl) was then taken from the left venous catheter five minutes after the bolus injection of BRL 37344 (FIG. 25)."}}, "note": "“Also recorded” adds a separate entry of the source.", "data": [{"compound": "O=S(=O)(CCO)c1cccc(OC[C@@H](O)CN[C@H]2COC3(CCN(S(=O)(=O)c4cnc5ccccc5c4)CC3)C2)c1", "note": "[Compound 88, (S)-1-(3-(2-hydroxyethylsulfonyl)phenoxy)-3-((R)-8-(quinolin-3-ylsulfonyl)-1-oxa-8-azaspiro[4.5]decan-3-ylamino)propan-2-ol]", "values": [{"measurement": "IC50", "setting": "[1]", "result": 25.1, "unit": "nM"}, {"measurement": "contractility compared to baseline", "setting": "[2]; rat with CHF, infusion 10 mg/kg then 30 mg/kg, 10 minutes each", "result": "trend toward improved contractility with increased dosage"}, {"measurement": "inhibition of negative effects of BRL on LVP in a rat with heart failure (figure legend)", "setting": "[2]; rat with heart failure, FIG. 32", "result": "inhibition of negative effects of BRL on LVP"}, {"measurement": "inhibition of the negative effect of beta-3 adrenergic receptor agonist BRL on LVP", "setting": "normal rats", "result": "dose-dependently inhibited; also recorded: inhibition of negative effects of BRL on LVP"}]}, {"compound": "NC(=O)CS(=O)(=O)c1cccc(OC[C@@H](O)CN[C@H]2COC3(CCN(S(=O)(=O)c4cnc5ccccc5c4)CC3)C2)c1", "note": "[Compound 123, 2-(3-((S)-2-hydroxy-3-((R)-8-(quinolin-3-ylsulfonyl)-1-oxa-8-azaspiro[4.5]decan-3-ylamino)propoxy)phenylsulfonyl)acetamide]", "values": [{"measurement": "IC50", "setting": "[1]", "result": 53.2, "unit": "nM"}, {"measurement": "inhibition of the negative effect of beta-3 adrenergic receptor agonist BRL on LVP", "setting": "normal rats", "result": "dose-dependently inhibited; also recorded: inhibition of negative effects of BRL on LVP"}]}, {"compound": "CCn1cc(S(=O)(=O)N2CCC3(CC2)C[C@@H](NC[C@H](O)COc2cccc(S(C)(=O)=O)c2)CO3)c(=O)c2ccccc21", "note": "[Compound 310, 1-ethyl-3-((R)-3-((S)-2-hydroxy-3-(3-(methylsulfonyl)phenoxy)propylamino)-1-oxa-8-azaspiro[4.5]decan-8-ylsulfonyl)quinolin-4(1H)-one]", "values": [{"measurement": "IC50", "setting": "[1]", "result": 37.6, "unit": "nM"}, {"measurement": "inhibition of the negative effect of beta-3 adrenergic receptor agonist BRL on LVP", "setting": "normal rats", "result": "dose-dependently inhibited; also recorded: inhibition of negative effects of BRL on LVP"}]}, {"compound": "CCOc1ccc(-c2ccc(CN)cc2)cc1S(=O)(=O)N1CCC2(CC1)C[C@H](NC[C@H](O)COc1cccc(S(=O)(=O)C3(CO)CC3)c1)CO2", "note": "[Compound 163, (S)-1-((S)-8-(4′-(aminomethyl)-4-ethoxybiphenyl-3-ylsulfonyl)-1-oxa-8-azaspiro[4.5]decan-3-ylamino)-3-(3-(1-(hydroxymethyl)cyclopropylsulfonyl)phenoxy)propan-2-ol]", "values": [{"measurement": "IC50", "setting": "[1]", "result": 17.3, "unit": "nM"}, {"measurement": "inhibition of the negative effect of beta-3 adrenergic receptor agonist BRL on LVP", "setting": "normal rats", "result": "dose-dependently inhibited; also recorded: inhibition of negative effects of BRL on LVP"}]}, {"compound": "CN1CCOc2ncc(S(=O)(=O)N3CCC4(CC3)C[C@@H](NC[C@H](O)COc3cccc(S(=O)(=O)C5CC5)c3)CO4)cc21", "note": "[Compound 154, (S)-1-(3-(cyclopropylsulfonyl)phenoxy)-3-((R)-8-(1-methyl-2,3-dihydro-1H-pyrido[2,3-b][1,4]oxazin-7-ylsulfonyl)-1-oxa-8-azaspiro[4.5]decan-3-ylamino)propan-2-ol]", "values": [{"measurement": "IC50", "setting": "[1]", "result": 17.5, "unit": "nM"}, {"measurement": "inhibition of the negative effect of beta-3 adrenergic receptor agonist BRL on LVP", "setting": "normal rats", "result": "dose-dependently inhibited; also recorded: inhibition of negative effects of BRL on LVP"}]}, {"compound": "O=S(=O)(c1cnc2ccccc2c1)N1CCC2(CC1)C[C@@H](NC[C@H](O)COc1cccc(S(=O)(=O)C3(CO)CC3)c1)CO2", "note": "[Compound 136, (S)-1-(3-(1-(hydroxymethyl)cyclopropylsulfonyl)phenoxy)-3-((R)-8-(quinolin-3-ylsulfonyl)-1-oxa-8-azaspiro[4.5]decan-3-ylamino)propan-2-ol]", "values": [{"measurement": "IC50", "setting": "[1]", "result": 18.8, "unit": "nM"}]}, {"compound": "COc1ccc(S(=O)(=O)N2CCC3(CC2)C[C@H](NC[C@H](O)COc2cccc(S(=O)(=O)C(F)(F)CO)c2)CO3)cc1-c1ccc(CN)cc1", "note": "[Compound 238, (S)-1-((S)-8-(4′-(aminomethyl)-6-methoxybiphenyl-3-ylsulfonyl)-1-oxa-8-azaspiro[4.5]decan-3-ylamino)-3-(3-(1,1-difluoro-2-hydroxyethylsulfonyl)phenoxy)propan-2-ol]", "values": [{"measurement": "IC50", "setting": "[1]", "result": 22.8, "unit": "nM"}]}, {"compound": "CC(C)NCc1ccc(-c2cccc(S(=O)(=O)N3CCC4(CC3)CC(NC[C@H](O)COc3cccc(S(C)(=O)=O)c3)CO4)c2)cc1", "note": "(stereo partly drawn) [Compound 80, (2S)-1-(8-(4′-((isopropylamino)methyl)biphenyl-3-ylsulfonyl)-1-oxa-8-azaspiro[4.5]decan-3-ylamino)-3-(3-(methylsulfonyl)phenoxy)propan-2-ol]", "values": [{"measurement": "IC50", "setting": "[1]", "result": 38.1, "unit": "nM"}]}, {"compound": "O=S(=O)(CC1CC1(F)F)c1cccc(OC[C@@H](O)CNC2COC3(CCN(S(=O)(=O)c4ccc5ccccc5c4)CC3)C2)c1", "note": "(stereo partly drawn) [Compound 17, (2S)-1-(3-((2,2-difluorocyclopropyl)methylsulfonyl)phenoxy)-3-(8-(naphthalen-2-ylsulfonyl)-1-oxa-8-azaspiro[4.5]decan-3-ylamino)propan-2-ol]", "values": [{"measurement": "IC50", "setting": "[1]", "result": 38.8, "unit": "nM"}]}, {"compound": "CN1CCOc2ccc(S(=O)(=O)N3CCC4(CC3)CC(NC[C@H](O)COc3cccc(S(C)(=O)=O)c3)CO4)cc21", "note": "(stereo partly drawn) [Compound 32, (2S)-1-(8-(4-methyl-3,4-dihydro-2H-benzo[b][1,4]oxazin-6-ylsulfonyl)-1-oxa-8-azaspiro[4.5]decan-3-ylamino)-3-(3-(methylsulfonyl)phenoxy)propan-2-ol]", "values": [{"measurement": "IC50", "setting": "[1]", "result": 21.1, "unit": "nM"}]}, {"compound": "Cc1ccc2c(O)c(S(=O)(=O)N3CCC4(CC3)C[C@@H](NC[C@H](O)COc3cccc(S(=O)(=O)C5CC5)c3)CO4)cnc2c1", "note": "[Compound 330, 3-((R)-3-((S)-3-(3-(cyclopropylsulfonyl)phenoxy)-2-hydroxypropylamino)-1-oxa-8-azaspiro[4.5]decan-8-ylsulfonyl)-7-methylquinolin-4-ol]", "values": [{"measurement": "IC50", "setting": "[1]", "result": 70.1, "unit": "nM"}]}]}
